Test results taken from article PMC4841555, “Optimization of the All-D Peptide D3 for Aβ Oligomer Elimination” (PLoS ONE, 2016).
Non-standard residues stand in square brackets, D forms with d. Residues, ends and D or L forms follow the SMILES beside them.

How the values were obtained:
Aβ(1–42) [1] = target: T1, Aβ(1–42) (Homo sapiens, UniProt P05067); assay: Thioflavin T (ThT) fibril formation assay; format: biochemical; conditions: pH 7.4, 20 μM Aβ(1–42), 20 μM peptide (method: 31 μg/ml), 20 μM ThT, 10 mM sodium phosphate pH 7.4, 37°C, compared after 5 h with Aβ(1–42)-only control; read-out: inhibition of Aβ(1–42) fibril formation (ThT fluorescence)
T1 construct: Aβ(1–42), N-terminally biotinylated Aβ(1–42) and FITC-Aβ(1–42) were purchased from Bachem; purchased Bachem (Heidelberg, Germany)
T1 sequence (P05067 672-713 limits assumed): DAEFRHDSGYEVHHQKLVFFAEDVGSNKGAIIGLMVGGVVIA
Procedure: 20 μM Aβ(1–42) was mixed with 20 μM Thioflavin T (ThT) and 31 μg/ml DB3 or DB3DB3 in 10 mM sodium phosphate buffer, pH 7.4. The assay was performed using a non-binding 96 well plate (Greiner Bio-One, Frickenhausen, Germany). ThT fluorescence was measured every 15 min at λex = 440 nm and λem = 490 nm in a temperature-controlled plate reader (Polarstar Optima, BMG, Offenburg, Germany) at 37°C with 1 min agitation before every measurement. Each value was background corrected using the ThT fluorescence of a peptide solution without Aβ(1–42). To investigate the influence of DB1 to DB5 on Aβ fibril formation, a Thioflavin T (ThT) assay was performed. In an aqueous environment the benzothiazole dye has a low fluorescence. […] The emission at 490 nm is directly proportional to the quantity of amyloid fibrils. Fibril formation of Aβ can be followed in real time by measuring the ThT fluorescence. Therefore, the inhibitory effects of the D-peptides DB1 to DB5 and D3 were investigated by co-incubating these peptides with Aβ(1–42) and performing the ThT assay. Fluorescence emission data were compared after 5 h incubation, because after this period the Aβ(1–42) control (without added peptide) reached its fluorescence maximum. […] 20 μM Aβ(1–42) was mixed with 20 μM DB1 to DB5 or 10 μM DB3DB3 and the ThT fluorescence was monitored. Aβ(1–42) without peptide addition was taken as the control. The ThT fluorescence of all samples were compared after 5 h, where the control, Aβ(1–42) only, reached its maximum in fluorescence emission. The Mann-Whitney-U-test was used for statistical analysis. * p < 0.05; ** p < 0.01; *** p < 0.001.

Aβ(1–42) [2] = target: T1, Aβ(1–42); assay: Aβ aggregation inhibition ELISA; format: biochemical; conditions: 400 nM Aβ(1–42), 500 mM Tris pH 7.4, 23 h, 37°C, aggregate-specific ELISA, logistic fit, three independent experiments; read-out: EC50 of inhibition of Aβ aggregate formation
Procedure: Freshly dissolved monomeric Aβ(1–42) (400 nM in 500 mM Tris-buffer pH 7.4) was incubated with and without DB peptides in different concentrations (0.01, 0.05, 0.1, 0.5, 1, 5, 10, 50 and 100 μM for DB3 or half of the molar concentrations in case of DB3DB3) in a humidity chamber for 23 h at 37°C. The aggregation was analyzed by an enzyme-linked immunosorbent assay (ELISA). NP27 antibody in bicarbonate/carbonate buffer was used to coat the ELISA plate overnight. Then the plate was washed in PBS-Tween buffer (1x PBS + 0.05% Tween) and blocked for 2 h at room temperature with 5% casein buffer. After washing, Aβ aggregate solutions were added to the plate and incubated for 1 h at room temperature. The plate was washed again and bound Aβ aggregates were detected by biotinylated 6E10/HRP-avidin mediated immunoreaction (BioLegend, San Diego, CA USA) using TMB as detection reagent. […] Mean value and standard error were calculated from three independent experiments. EC50 was calculated by fitting the data to a logistic dose response function.
Fig 5 Inhibition of Aβ fibril formation and Aβ aggregation disassemble by DB3 and DB3DB3. A) Monomeric Aβ(1–42) (400 nM) was mixed with different concentrations of DB3 (0.01, 0.05, 0.1, 0.5, 1, 5, 10, 50, 100 μM) and the aggregation state of Aβ was analyzed using an Aβ aggregate specific ELISA. […] All data were determined in triplicate. […]

PC12 cells = assay: MTT cell viability assay; format: cell-based, rat; conditions: 5 μM peptide without Aβ, 24 h
Procedure: Rat pheochromocytoma PC12 cells (Leibniz Institute DSMZ, Braunschweig, Germany) were cultivated in DMEM medium supplemented with 10% fetal bovine serum and 5% horse serum. 10,000 cells per well were seeded on collagen-coated 96 well plates (Gibco, Life technology, Carlsberg, USA) and incubated in a 95% humidified atmosphere with 5% CO2 at 37°C for 24 h. […] DB peptide was then added at different concentrations and incubated for further 40 min at 21°C and 600 rpm agitation before addition to the PC12 cells. […] Cell viability was then measured using the Cell proliferation Kit I (MTT) (Roche, Basel, Switzerland) according to the manufacturer’s instruction. The absorbance of the formazan product was determined by measuring at 570 nm after subtracting the absorption at 660 nm. For absorption measurements, a Polarstar Optima plate reader (BMG, Offenburg, Germany) was used. All results were normalized to cells that were treated with buffer only.
The cell viability assay was performed using PC12 cells in a MTT test. […] The absorption of buffer treated cells was set to 100% cell viability. […] The Mann-Whitney-U-test was used for statistical analysis. * p < 0.05; ** p < 0.01; *** p < 0.001.

Compound: CC[C@@H](C)[C@@H](NC(=O)[C@H]1CCCN1C(=O)[C@H](N)CCCNC(=N)N)C(=O)N[C@@H](C(=O)N[C@H](CCCNC(=N)N)C(=O)N[C@H](CC(C)C)C(=O)N[C@H](CCCNC(=N)N)C(=O)N[C@@H](C(=O)N[C@H](Cc1c[nH]cn1)C(=O)N[C@H](CCC(N)=O)C(=O)N[C@H](CC(N)=O)C(=O)N[C@H](CCCNC(=N)N)C(N)=O)[C@H](C)O)[C@H](C)O [DB3] (H-[dR][dP][dI][dT][dR][dL][dR][dT][dH][dQ][dN][dR]-NH2)
- inhibition at 31 µg/mL (Aβ(1–42) [1]): 80%
- EC50 (Aβ(1–42) [2]): 6 µM
- effect of peptide alone on PC12 cell viability (PC12 cells): not toxic
